Measurements as given in ChEMBL document CHEMBL1201862, “PubChem BioAssay data set” (2004).
Active and inactive are the calls of the source.

Experiments:
[1] = system: Vero; test: cells; assay type: functional; conditions: Chlorocebus sabaeus
[2] = system: Escherichia coli; test: microbe, parasite or virus in culture
[3] = target: T1, Heat shock factor protein 1 (Mus musculus, UniProt P38532); test: enhancement of HSF1-driven luciferase signal – cell-based, NIH3T3, luminescence, dose retest, confirmation (AID 435004); assay type: functional;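 note: stress induced by proteasome inhibitor MG132 added 30 min after compound; luciferase reporter driven by HSF1 response element in NIH3T3 cells; actives raise luminescence as potentiators of the MG132 stress response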
T1 sequence (P38532 whole entry): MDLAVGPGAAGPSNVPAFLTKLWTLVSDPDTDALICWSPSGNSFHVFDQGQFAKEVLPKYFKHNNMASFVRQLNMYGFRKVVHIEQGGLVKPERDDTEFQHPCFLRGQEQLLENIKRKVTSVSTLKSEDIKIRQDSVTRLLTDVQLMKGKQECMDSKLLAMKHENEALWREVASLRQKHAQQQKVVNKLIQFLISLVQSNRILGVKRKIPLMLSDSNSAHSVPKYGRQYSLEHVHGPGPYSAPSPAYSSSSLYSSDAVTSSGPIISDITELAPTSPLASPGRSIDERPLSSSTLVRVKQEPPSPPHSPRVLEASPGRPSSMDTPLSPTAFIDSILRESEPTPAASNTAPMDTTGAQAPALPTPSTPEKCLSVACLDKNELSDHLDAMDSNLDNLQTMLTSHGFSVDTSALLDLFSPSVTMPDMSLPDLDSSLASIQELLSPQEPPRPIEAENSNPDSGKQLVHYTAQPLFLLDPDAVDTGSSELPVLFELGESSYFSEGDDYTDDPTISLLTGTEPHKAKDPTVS

[4] = target: Mu-type opioid receptor (Homo sapiens, UniProt P35372); test: (§1) Counterscreen for agonists of heterodimerization of the mu 1 (OPRM1) and delta 1 (OPRD1) opioid receptors: Luminescence-based cell-based high throughput dose response assay to identify agonists of OPRM1 homodimerization.; assay type: functional
Sequence of Mu-type opioid receptor (P35372 whole entry): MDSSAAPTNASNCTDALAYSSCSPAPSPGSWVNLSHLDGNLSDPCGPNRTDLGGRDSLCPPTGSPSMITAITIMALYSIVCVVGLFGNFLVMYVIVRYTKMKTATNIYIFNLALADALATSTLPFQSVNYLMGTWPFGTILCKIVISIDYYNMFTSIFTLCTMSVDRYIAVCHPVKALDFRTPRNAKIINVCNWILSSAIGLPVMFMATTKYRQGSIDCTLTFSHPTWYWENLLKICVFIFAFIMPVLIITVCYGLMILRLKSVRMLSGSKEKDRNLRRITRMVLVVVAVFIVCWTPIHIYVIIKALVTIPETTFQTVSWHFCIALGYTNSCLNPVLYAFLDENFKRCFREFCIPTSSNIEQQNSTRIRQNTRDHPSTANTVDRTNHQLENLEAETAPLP

[5] = target: Delta-type opioid receptor (Homo sapiens, UniProt P41143); test: as §1, with “of OPRD1” for “of OPRM1”, “homodimerization. [Related pubchem assays (depositor defined):AID504326, AID504355, AID504692, AID504904, AID504905]” for “homodimerization.”; assay type: functional
Sequence of Delta-type opioid receptor (P41143 whole entry): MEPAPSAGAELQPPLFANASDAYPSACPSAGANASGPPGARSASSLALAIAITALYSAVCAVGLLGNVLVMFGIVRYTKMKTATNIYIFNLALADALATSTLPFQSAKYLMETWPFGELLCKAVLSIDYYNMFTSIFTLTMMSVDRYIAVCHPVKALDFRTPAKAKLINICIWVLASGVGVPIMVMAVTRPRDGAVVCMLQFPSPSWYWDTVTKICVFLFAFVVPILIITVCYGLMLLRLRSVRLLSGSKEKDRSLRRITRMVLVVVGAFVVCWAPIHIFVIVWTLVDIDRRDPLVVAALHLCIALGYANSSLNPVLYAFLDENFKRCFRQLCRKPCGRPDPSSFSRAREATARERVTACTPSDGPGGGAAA

[6] = target: 5-hydroxytryptamine receptor 5A (Homo sapiens, UniProt P47898); test: Counterscreen for agonists of OPRM1-OPRD1 heterodimerization: luminescence-based cell-based high throughput dose response assay to identify agonists of 5-hydroxytryptamine (serotonin) 5A receptor (HTR5A). [Related pubchem assays (depositor defined):AID504326, AID504355, AID504692, AID504904, AID504905]; assay type: functional
Sequence of 5-hydroxytryptamine receptor 5A (P47898 whole entry): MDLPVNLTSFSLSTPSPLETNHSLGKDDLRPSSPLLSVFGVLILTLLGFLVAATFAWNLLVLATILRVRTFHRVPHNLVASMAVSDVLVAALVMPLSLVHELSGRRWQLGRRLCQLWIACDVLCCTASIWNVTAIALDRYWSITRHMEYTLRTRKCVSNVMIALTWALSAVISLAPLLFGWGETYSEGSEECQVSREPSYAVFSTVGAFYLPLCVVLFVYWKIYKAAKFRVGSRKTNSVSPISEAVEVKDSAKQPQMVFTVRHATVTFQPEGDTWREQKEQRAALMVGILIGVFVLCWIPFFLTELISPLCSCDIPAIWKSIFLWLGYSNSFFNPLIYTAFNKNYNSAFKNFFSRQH

[7] = cells; assay type: functional, cell-based
[8] = non-specific 3'UTR reporter inhibition in Clone20-Shn3RL – cell-based, Renilla luciferase, cherry-picked, counter-screen for Shn3 inhibitor project, dose response (AID 624133); assay type: functional
[9] = reduction of Shn3 3'UTR-driven luciferase in osteoblasts – cell-based, Clone20 osteoblasts, firefly luciferase, cherry-picked, dose response (AID 624132); assay type: functional;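 note: firefly luciferase luminescence from reporter carrying the Shn3 3'UTR in osteoblasts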
[10] = cells; assay type: functional, cell-based; remark: listed apart in the source
[11] = system: INS1; test: INS-1E survival protection against cytokine death – cell-based, luminescence, retest, dose response (AID 449756); assay type: functional; conditions: Rattus norvegicus;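 note: cell death triggered by IL-1 beta plus TNF-alpha plus IFN-gamma mixture; protective hits raise ATP signal compared with cytokine alone wells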
[12] = loss of viability in HepG2 cells – cell-based, CellTiter-Glo, cherry-picked, cytotoxicity control for Shn3 inhibitor project, dose response (AID 624134); assay type: functional
[13] = decrease of insulin promoter-GFP reporter – imaging, high-content screening, mouse beta cells (AID 1628); assay type: functional; conditions: MIN6
[14] = MIN6 cell viability loss – mouse insulinoma, cytotoxicity control, dose response (AID 2122); assay type: functional;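 note: confirmatory high-throughput counterscreen run to flag cytotoxic compounds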

With `O=C1N(c2ccccc2C(F)(F)F)OC1(Cc1ccccc1)c1ccccc1` (stereo not drawn) the CC50 [1] was > 25 µM (active).

For `COC(=O)c1c(NC(=O)CCN2CCOCC2)sc2c1CCCC2`, the AC50 [2] was 85.8 µM (active).

In the case of `COc1ccc(-c2nnc(Nc3ccc(CC(N)=O)cc3)c3ccccc23)cc1`, the AC50 [2] is reported as 23.2 µM (active) and the EC50 [3] is reported as > 260 µM (inactive).

In the case of `CN(C)C(CNC(=O)CSC(=S)N1CCCC1)c1ccccc1` (stereo not drawn), the EC50 [4] is reported as 17.1 µM (inactive), the EC50 [5] is reported as > 92.5 µM (inactive) and the EC50 [6] is reported as > 92.5 µM (inactive).

With `COc1ccccc1NC(=O)c1sc2nc(C)cc(C)c2c1N` the EC50 [4] was > 92.5 µM (inactive), the EC50 [5] was > 92.5 µM (inactive) and the EC50 [6] was > 92.5 µM (inactive).

With `Cc1ccc(Nc2c(-c3ccccn3)nc3ccc(C)cn23)cc1` the EC50 [7] was 79.5 µM (active), the AC50 [8] was 3.02 µM (active) and the AC50 [9] was 1.74 µM (active). For the same molecule, the EC50 [10] was 38.3 µM (active), the AC50 [11] was 3 µM (active) and the AC50 [12] was 5.21 µM (active). The IC50 [13] was 1.95 µM (active) and the IC50 [14] was 0.539 µM (active).
